Laboratory results reported in patent publication US5663150A, “Cyclopentane-β-amino acid tripeptides” (Bayer Aktiengesellschaft, priority 1995, dated 1997).

System: C. albicans
Assay: systemic mouse candidiasis, in-vivo antimycotic activity
Conditions: male CFW1 mice infected i.v. with 3×10^5 CFU C. albicans; 50 mg/kg 2 × daily p.o. for 5 days; survival up to 10th day p.i.; 10 animals per group
Method: Testing of in-vivo activity
The test model for antimycotic in-vivo actions used was systemic mouse candidias is:
Male CFW1 mice of weight 20 g were infected in the tail vein by injection of 3×10^5 CFU of C. albicans per animal.
Untreated control animals died completely within one week post-infectionem (p.i.) of a generalized candidiasis with granuloma formation in the kidneys. For activity testing, the preparations, dissolved in a 0.2% strength aqueous glucose-agar solution, were administered orally by stomach tube to the infected animals twice daily.
The daily doses were 2×50 mg/kg of body weight (BW), the treatment period was 5 days.
The survival rates of the treated animals were noted daily up to the 10th day p.i. In the case of the untreated control animals, no animals survived at this point.
For the preparations, 10 animals each were employed per dose and control group.

C=C1C[C@H](NC(=O)[C@@H](NC(=O)[C@@H](N)C(C)CC)C(C)CC)[C@H](C(=O)O)C1 (relative stereo) [Example 1, (-)-1,2-cis-(2-((S)-Isoleucyl)-(S)-isoleucylamino)-4-methylenecyclopentane-1-carboxylic acid]
Number of surviving animals: 8/10
